Test results published in patent publication US20250276962A1, “CONTRACEPTIVE COMPOUNDS AND METHODS” (Regents of the University of Minnesota, priority 2021, published 2025).
“Also recorded” adds a separate entry of the source. Read-outs that look alike come from different tables or passages of the source.

Assays:
male cynomolgus macaques = details: cynomolgus monkey, in vivo
[1] = target: acetylcholinesterase (AChE) (Homo sapiens, UniProt P22303); assay: Off-target screening, AChE; assay type: biochemical
acetylcholinesterase (AChE), sequence (P22303 32-614, species assumed): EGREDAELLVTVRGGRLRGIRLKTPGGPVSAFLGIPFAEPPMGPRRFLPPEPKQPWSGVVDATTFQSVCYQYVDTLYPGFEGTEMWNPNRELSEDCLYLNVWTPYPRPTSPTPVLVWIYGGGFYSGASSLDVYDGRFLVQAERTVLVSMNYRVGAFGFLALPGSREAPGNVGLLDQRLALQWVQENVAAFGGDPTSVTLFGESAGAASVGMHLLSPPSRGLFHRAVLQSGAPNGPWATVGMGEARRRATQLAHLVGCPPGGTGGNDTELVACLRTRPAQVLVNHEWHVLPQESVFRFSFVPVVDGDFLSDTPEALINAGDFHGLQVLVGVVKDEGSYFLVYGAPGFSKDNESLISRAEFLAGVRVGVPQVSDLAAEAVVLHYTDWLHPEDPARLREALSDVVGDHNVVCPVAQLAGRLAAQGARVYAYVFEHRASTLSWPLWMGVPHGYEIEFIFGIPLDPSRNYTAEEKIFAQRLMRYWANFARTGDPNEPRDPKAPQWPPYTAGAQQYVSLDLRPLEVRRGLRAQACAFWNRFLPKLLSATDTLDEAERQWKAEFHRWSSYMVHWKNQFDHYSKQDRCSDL

[2] = Solubility in saline and 50% carbitol; assay type: physicochemical
48 potential off-targets = assay: Off-target screening, agonist and antagonist activity against 48 potential off-targets; details: 10 uM; against 39 of 48 targets (including glucocorticoid and androgen receptors)
[3] = Distribution assay, plasma levels after oral dosing; details: CD-1 mice, 10 mg/kg oral
Procedure: Testes and brain were then harvested. Resulting plasma and tissue were frozen at <−20° C. until analysis by LC/MS/MS.

[4] = Single dose toxicity, dog; details: Beagle, in vivo, Maximum tolerated dose (MTD), Beagle dogs, highest dose level tested
in vivo = details: male, Sprague-Dawley, rat, oral
in vitro = details: mouse hepatocytes
hERG = hERG (Homo sapiens, UniProt Q12809); assay: in vitro; details: human
hERG, sequence (Q12809 whole entry): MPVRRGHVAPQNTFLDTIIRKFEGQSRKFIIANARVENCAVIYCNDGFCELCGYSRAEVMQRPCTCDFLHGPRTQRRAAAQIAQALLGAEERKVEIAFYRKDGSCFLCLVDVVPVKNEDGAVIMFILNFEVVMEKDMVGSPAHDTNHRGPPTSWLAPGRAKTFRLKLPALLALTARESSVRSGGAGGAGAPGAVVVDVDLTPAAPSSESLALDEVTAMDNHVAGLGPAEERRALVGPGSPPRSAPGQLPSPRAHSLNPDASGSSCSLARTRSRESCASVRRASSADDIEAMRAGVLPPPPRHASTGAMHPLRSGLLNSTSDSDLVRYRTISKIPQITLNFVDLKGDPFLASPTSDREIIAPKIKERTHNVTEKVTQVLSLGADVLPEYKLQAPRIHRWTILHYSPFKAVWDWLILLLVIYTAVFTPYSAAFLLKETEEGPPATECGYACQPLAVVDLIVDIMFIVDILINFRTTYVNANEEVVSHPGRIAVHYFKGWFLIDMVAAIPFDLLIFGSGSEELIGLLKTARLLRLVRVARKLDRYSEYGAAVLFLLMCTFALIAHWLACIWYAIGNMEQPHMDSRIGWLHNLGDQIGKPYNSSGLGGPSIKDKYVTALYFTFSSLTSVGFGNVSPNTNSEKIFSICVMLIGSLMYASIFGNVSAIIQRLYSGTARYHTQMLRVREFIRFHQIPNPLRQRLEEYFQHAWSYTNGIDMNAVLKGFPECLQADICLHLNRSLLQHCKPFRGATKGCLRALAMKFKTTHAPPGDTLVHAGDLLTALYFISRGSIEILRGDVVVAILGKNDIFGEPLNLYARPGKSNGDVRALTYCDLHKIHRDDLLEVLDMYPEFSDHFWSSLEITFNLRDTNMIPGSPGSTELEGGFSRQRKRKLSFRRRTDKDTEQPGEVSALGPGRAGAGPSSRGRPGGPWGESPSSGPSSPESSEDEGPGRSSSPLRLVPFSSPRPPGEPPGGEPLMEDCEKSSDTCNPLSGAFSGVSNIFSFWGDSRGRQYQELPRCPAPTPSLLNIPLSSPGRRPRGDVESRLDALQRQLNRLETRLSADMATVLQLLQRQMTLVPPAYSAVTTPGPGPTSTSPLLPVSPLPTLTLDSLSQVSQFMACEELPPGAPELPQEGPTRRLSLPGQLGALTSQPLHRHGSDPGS
Procedure: (§1) The potential inhibitory effect on human Ether-á-go-go related gene (hERG) channel was evaluated using a manual patch-clamp system. A HEK293 cell line stably transfected with hERG gene was employed.

[5] = target: human Ether-á-go-go related gene (hERG) channel (Homo sapiens, UniProt Q12809); assay: cell-based
human Ether-á-go-go related gene (hERG) channel, sequence (Q12809 whole entry): as above
Procedure: as §1

cyclooxygenase 2 (COX2) = cyclooxygenase 2 (COX2) (Homo sapiens, UniProt P35354); assay: Off-target screening, COX2; assay type: biochemical
cyclooxygenase 2 (COX2), sequence (P35354 18-604, species assumed): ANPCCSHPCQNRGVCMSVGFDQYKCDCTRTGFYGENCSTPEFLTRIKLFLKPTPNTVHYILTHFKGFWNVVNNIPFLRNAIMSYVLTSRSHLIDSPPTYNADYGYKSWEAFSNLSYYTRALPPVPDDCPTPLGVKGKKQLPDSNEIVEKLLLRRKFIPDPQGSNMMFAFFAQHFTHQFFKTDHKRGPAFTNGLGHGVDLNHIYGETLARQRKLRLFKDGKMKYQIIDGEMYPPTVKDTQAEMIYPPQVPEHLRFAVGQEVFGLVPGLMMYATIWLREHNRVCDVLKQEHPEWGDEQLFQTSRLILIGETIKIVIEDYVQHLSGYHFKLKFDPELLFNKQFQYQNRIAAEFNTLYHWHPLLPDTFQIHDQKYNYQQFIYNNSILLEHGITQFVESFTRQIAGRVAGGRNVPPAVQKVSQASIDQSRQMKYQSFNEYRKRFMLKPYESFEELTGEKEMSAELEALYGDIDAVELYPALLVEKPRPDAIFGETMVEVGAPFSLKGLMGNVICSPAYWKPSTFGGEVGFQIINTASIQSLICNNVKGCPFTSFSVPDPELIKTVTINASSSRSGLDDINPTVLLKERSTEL

[6] = Stability in rat liver microsomes; assay type: in vitro ADME; details: read-out: Half-life (T1/2) Liver microsomes (Phase I metabolism)
[7] = Stability in monkey hepatocytes; assay type: in vitro ADME; details: read-out: Half-life (T1/2) Hepatocytes (Phase I and Phase II metabolism) (converted)
[8] = Single dose toxicity, rat; details: Sprague-Dawley, in vivo, Maximum tolerated dose (MTD), Sprague-Dawley rats, highest dose level tested
[9] = target: monoamine oxidase A (MAO-A) (Homo sapiens, UniProt P21397); assay: Off-target screening, MAO-A; assay type: biochemical
monoamine oxidase A (MAO-A), sequence (P21397 whole entry, species assumed): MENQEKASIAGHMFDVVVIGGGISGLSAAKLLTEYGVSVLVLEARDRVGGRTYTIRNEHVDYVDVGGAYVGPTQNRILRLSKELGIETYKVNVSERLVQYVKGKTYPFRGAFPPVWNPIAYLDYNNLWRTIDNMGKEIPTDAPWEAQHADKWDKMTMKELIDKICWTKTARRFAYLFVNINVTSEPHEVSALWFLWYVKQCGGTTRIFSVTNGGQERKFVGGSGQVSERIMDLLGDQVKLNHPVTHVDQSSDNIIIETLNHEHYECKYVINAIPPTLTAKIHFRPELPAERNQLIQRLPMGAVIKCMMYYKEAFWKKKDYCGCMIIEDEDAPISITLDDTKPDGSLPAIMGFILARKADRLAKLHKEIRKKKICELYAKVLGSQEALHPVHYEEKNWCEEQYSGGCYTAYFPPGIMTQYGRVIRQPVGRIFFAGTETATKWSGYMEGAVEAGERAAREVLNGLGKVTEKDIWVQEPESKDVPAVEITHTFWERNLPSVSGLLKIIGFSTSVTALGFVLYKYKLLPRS

[10] = target: Kir2.1 (potassium channel of excitable cells) (Homo sapiens, UniProt P63252); assay: Off-target screening, Kir2.1; assay type: cell-based
Kir2.1 (potassium channel of excitable cells), sequence (P63252 whole entry): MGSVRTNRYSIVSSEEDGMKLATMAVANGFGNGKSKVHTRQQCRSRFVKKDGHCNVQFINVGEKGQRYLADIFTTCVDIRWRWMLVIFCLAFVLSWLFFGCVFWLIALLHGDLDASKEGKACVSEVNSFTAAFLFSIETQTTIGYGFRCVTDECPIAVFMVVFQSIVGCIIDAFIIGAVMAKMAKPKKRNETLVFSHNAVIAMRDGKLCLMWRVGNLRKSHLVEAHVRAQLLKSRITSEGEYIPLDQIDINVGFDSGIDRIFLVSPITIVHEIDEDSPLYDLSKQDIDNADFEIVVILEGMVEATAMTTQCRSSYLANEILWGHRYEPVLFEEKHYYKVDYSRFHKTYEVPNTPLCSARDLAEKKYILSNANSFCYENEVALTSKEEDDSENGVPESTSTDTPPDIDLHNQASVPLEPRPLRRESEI

male Sprague-Dawley rats = assay: Testis histopathology after 14-day dosing, rat; assay type: in vivo; details: male SD rats, daily doses for 14 days (25 mg/kg/day in FIG. 11)
Procedure: (§2) 2 male Beagle dogs and 5 male SD rats were dosed with 25 mg/kg/day for 14 days. On Day 15, animals were euthanized to harvest organs for histopathology. Shown are representative images. See Example 19.

[11] = target: KVLQT(7.1)/mink (cardiac potassium ion channel) (Homo sapiens, UniProt P51787); assay: Off-target screening, KVLQT(7.1)/mink; assay type: cell-based
male Beagle dogs = assay: Testis histopathology after 14-day dosing, dog; assay type: in vivo; details: daily doses for 14 days (25 mg/kg/day in FIG. 11)
Procedure: as §2

[12] = not given; remark: listed apart in the source

SMILES: Cc1ccc(C2=CC(C)(C)Oc3ccc(-c4ccc(-c5ccc(C(=O)[O-])cc5)[nH]4)cc32)cc1.[Na+] [Example 1, Sodium 4-(5-(2,2-dimethyl-4-(p-tolyl)-2H-chromen-6-yl)-1H-pyrrol-2-yl)benzoate]
- Repeat dose observations (behaviour, body weight, CBC, clinical chemistry) (male cynomolgus macaques): behaved normally and had no substantial changes in body weight, CBC parameters or clinical chemistry parameters
- Half-life (T1/2) Hepatocytes (Phase I and Phase II metabolism) (mouse): 4.8 h
- In vitro Clint (μL/min/10^6 cells) (mouse hepatocytes): 4.79 μL/min/10^6 cells
- In vitro T1/2 (mouse hepatocytes): 289.56 min
- IC50 [1]: > 30 µM
- inhibition at 10 µM ([1]; 10 μM): 10.2%
- solubility ([2]; 50% carbitol [2-(2-ethoxyethoxy)ethanol], aqueous with cosolvent or surfactant or cyclodextrin, in 50% carbitol [2-(2-ethoxyethoxy)ethanol, read-out: Solubility): > 100 mg/mL
- solubility ([2]; saline, saline or isotonic, in saline, read-out: Solubility): ≤ 100 mg/mL
- solubility ([2]; saline, saline or isotonic, saline, read-out: Solubility (saline)): 2 mg/mL
- Agonist or antagonist activity against off-targets (48 potential off-targets): Example 1 had agonist or antagonist activity of <10% against 39 of them (including
- Plasma level at 48 hours [3]: 12.9 nM
- MTD [4]: > 500 mg/kg
- MTD at 2 weeks (in vivo): 50 mg/kg
- CLint scaled (in vitro): 56.5 mL/min/kg
- inhibition at 3.33 µM (hERG; % of hERG inhibition Cell 1, 3.33 μM): 6.99%
- inhibition at 10 µM (hERG; % of hERG inhibition Cell 1, 10.00 μM): 19.5%
- inhibition at 30 µM (hERG; % of hERG inhibition Cell 1, 30.00 μM): 35.9%
- inhibition at 3.33 µM (hERG; % of hERG inhibition Cell 2, 3.33 μM): 16.4%
- inhibition at 10 µM (hERG; % of hERG inhibition Cell 2, 10.00 μM): 20.2%
- inhibition at 30 µM (hERG; % of hERG inhibition Cell 2, 30.00 μM): 43.2%
- inhibition at 3.33 µM (hERG; Average % of hERG inhibition, 3.33 μM): 11.7%
- inhibition at 10 µM (hERG; Average % of hERG inhibition, 10.00 μM): 19.9%
- IC50 [5]: > 30 µM
- hERG inhibitor ranking ([5]; human): The compound of Example lis not considered an hERG inhibitor. The IC50 in hERG-
- IC50 ([5]; read-out: hERG IC50, hERG-transfected HEK293 cells): > 30 µM
- IC50 ([5]; read-out: hERG IC50, hERG-transfected HEK293 cells, patch clamp): > 30 µM
- IC50 (cyclooxygenase 2 (COX2)): 8.51 µM
- inhibition at 10 µM (cyclooxygenase 2 (COX2); read-out: Inhibition of COX2): 61.8%
- half-life [6]: > 1390 min
- half-life [7]: 192 min
- MTD [8]: 750 mg/kg
- IC50 [9]: 24.6 µM
- inhibition at 10 µM ([9]; 10 μM): 45.8%
- IC50 [10]: > 10 µM
- inhibition at 10 µM ([10]; read-out: Inhibition of Kir2.1): 13.2%
- Testis histopathology (male Sprague-Dawley rats): degeneration of the germinal epithelium; also recorded: impairs the germinal epithelium
- inhibition at 10 µM [11]: 14.9%
- Testis histopathology (male Beagle dogs): degeneration of the germinal epithelium; also recorded: visible in all evaluated tubuli seminiferi contorti; also recorded: impairs the germinal epithelium
- Half-life (T1/2) Hepatocytes (Phase I and Phase II metabolism) ([12]; human): 8.7 h
- In vitro Clint (μL/min/10^6 cells) ([12]; human hepatocytes): 2.65 μL/min/10^6 cells
- In vitro T1/2 ([12]; human hepatocytes): 522.36 min
